Data taken from the supplement of paper PMC10627819.

Assays:
B. subtilis 168 = experiment: fitness (endpoint OD595 vs no drug) (fraction); higher = more growth
How it was run: (§1)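 Bacterial growth was followed in 384-well plates seeded at OD595 0.01, with 30 µl per well, or 55 µl for S. pneumoniae, in TSB, LB Lennox or CY at 37 °C. OD595 was read every 30 min for 14 h, and each reading had the first reading subtracted as background. Fitness is the background-corrected optical density at entry into stationary phase divided by the robust mean of the no-drug control wells. This ratio is capped at 1.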

S. aureus DSM 20231 [1] = experiment: as above
How it was run: as §1

S. aureus Newman = experiment: as above
How it was run: as §1

S. pneumoniae D39V = experiment: as above
How it was run: as §1

S. aureus DSM 20231 [2] = experiment: Bliss interaction score (quartile over a dose matrix) (fitness difference); higher = more antagonism (negative = synergy)
How it was run: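 Fitness was derived from optical density at entry into stationary phase, divided by the robust mean of the no-drug wells on the same plate. That reading was taken as OD595, and the ratio was capped at 1. Single-drug fitness was inferred from the combination data. The Bliss score, observed fitness minus the expected product of single-drug fitness, was summarised as quartiles over technical, biological and donor/recipient replicates.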
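Wherever Bliss interaction score (quartile over a dose matrix) is given: first quartile when negative (synergy) and third quartile when positive (antagonism).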

CCC[C@@H]1C[C@@H](C(=O)N[C@@H]([C@H]2O[C@H](SC)[C@H](O)[C@@H](O)[C@H]2O)[C@H](C)Cl)N(C)C1 [Clindamycin] + CO/N=C(\C(=O)N[C@@H]1C(=O)N2C(C(=O)O)=C(COC(C)=O)CS[C@H]12)c1csc(N)n1 [Cefotaxime]
one replicate
Conditions | fitness
B. subtilis 168, first compound 0.0039 µg/mL, partner 0.0625 µg/mL | 0.681
B. subtilis 168, first compound 0.0039 µg/mL, partner 0.125 µg/mL | 0.531
B. subtilis 168, first compound 0.0039 µg/mL, partner 0.25 µg/mL | 0.442
B. subtilis 168, first compound 0.0078 µg/mL, partner 0.0625 µg/mL | 0.62
B. subtilis 168, first compound 0.0078 µg/mL, partner 0.125 µg/mL | 0.482
B. subtilis 168, first compound 0.0078 µg/mL, partner 0.25 µg/mL | 0.389
B. subtilis 168, first compound 0.0156 µg/mL, partner 0.0625 µg/mL | 0.485
B. subtilis 168, first compound 0.0156 µg/mL, partner 0.125 µg/mL | 0.406
B. subtilis 168, first compound 0.0156 µg/mL, partner 0.25 µg/mL | 0.314
B. subtilis 168, first compound 0.0625 µg/mL, partner 0.00775 µg/mL | 0.473
B. subtilis 168, first compound 0.0625 µg/mL, partner 0.0155 µg/mL | 0.389
B. subtilis 168, first compound 0.0625 µg/mL, partner 0.031 µg/mL | 0.343
B. subtilis 168, first compound 0.125 µg/mL, partner 0.00775 µg/mL | 0.339
B. subtilis 168, first compound 0.125 µg/mL, partner 0.0155 µg/mL | 0.304
B. subtilis 168, first compound 0.125 µg/mL, partner 0.031 µg/mL | 0.3
B. subtilis 168, first compound 0.25 µg/mL, partner 0.00775 µg/mL | 0.33
B. subtilis 168, first compound 0.25 µg/mL, partner 0.0155 µg/mL | 0.254
B. subtilis 168, first compound 0.25 µg/mL, partner 0.031 µg/mL | 0.111
S. aureus Newman, first compound 0.0312 µg/mL, partner 0.039 µg/mL | 0.525
S. aureus Newman, first compound 0.0312 µg/mL, partner 0.312 µg/mL | 0.128
S. aureus Newman, first compound 0.0625 µg/mL, partner 0.039 µg/mL | 0.161
S. aureus Newman, first compound 0.0625 µg/mL, partner 0.312 µg/mL | 0.0773
S. aureus Newman, first compound 0.125 µg/mL, partner 0.039 µg/mL | 0.0501
S. aureus Newman, first compound 0.125 µg/mL, partner 0.312 µg/mL | 0.113

Conditions | fitness
B. subtilis 168, first compound 0.0625 µg/mL, partner 0.5 µg/mL | 0.138
B. subtilis 168, first compound 0.0625 µg/mL, partner 1 µg/mL | 0.0488
B. subtilis 168, first compound 0.0625 µg/mL, partner 2 µg/mL | 0.0865
B. subtilis 168, first compound 0.125 µg/mL, partner 0.5 µg/mL | 0.096
B. subtilis 168, first compound 0.125 µg/mL, partner 1 µg/mL | 0.0462
B. subtilis 168, first compound 0.125 µg/mL, partner 2 µg/mL | 0.0669
B. subtilis 168, first compound 0.25 µg/mL, partner 0.5 µg/mL | 0.0789
B. subtilis 168, first compound 0.25 µg/mL, partner 1 µg/mL | 0.0542
B. subtilis 168, first compound 0.25 µg/mL, partner 2 µg/mL | 0.0739
S. aureus DSM 20231 [1], first compound 0.0625 µg/mL, partner 0.312 µg/mL | 0.11
S. aureus DSM 20231 [1], first compound 0.125 µg/mL, partner 0.039 µg/mL | 0.0991
S. aureus DSM 20231 [1], first compound 0.125 µg/mL, partner 0.078 µg/mL | 0.0447
S. aureus DSM 20231 [1], first compound 0.125 µg/mL, partner 0.156 µg/mL | 0.0526
S. aureus DSM 20231 [1], first compound 0.125 µg/mL, partner 0.312 µg/mL | 0.0465
S. aureus Newman, first compound 0.0312 µg/mL, partner 0.078 µg/mL | 0.437
S. aureus Newman, first compound 0.0312 µg/mL, partner 0.156 µg/mL | 0.351
S. aureus Newman, first compound 0.0312 µg/mL, partner 0.625 µg/mL | 0.055
S. aureus Newman, first compound 0.0312 µg/mL, partner 1.25 µg/mL | 0.036
S. aureus Newman, first compound 0.0312 µg/mL, partner 2.5 µg/mL | 0.0433
S. aureus Newman, first compound 0.0625 µg/mL, partner 0.078 µg/mL | 0.223
S. aureus Newman, first compound 0.0625 µg/mL, partner 0.156 µg/mL | 0.114
S. aureus Newman, first compound 0.0625 µg/mL, partner 0.625 µg/mL | 0.0368
S. aureus Newman, first compound 0.0625 µg/mL, partner 1.25 µg/mL | 0.0614
S. aureus Newman, first compound 0.0625 µg/mL, partner 2.5 µg/mL | 0.0509
S. aureus Newman, first compound 0.125 µg/mL, partner 0.078 µg/mL | 0.0724
S. aureus Newman, first compound 0.125 µg/mL, partner 0.156 µg/mL | 0.0344
S. aureus Newman, first compound 0.125 µg/mL, partner 0.625 µg/mL | 0.0721
S. aureus Newman, first compound 0.125 µg/mL, partner 1.25 µg/mL | 0.0661
S. aureus Newman, first compound 0.125 µg/mL, partner 2.5 µg/mL | 0.0579
S. pneumoniae D39V, first compound 0.0125 µg/mL, partner 0.0018 µg/mL | 0.792
S. pneumoniae D39V, first compound 0.0125 µg/mL, partner 0.0035 µg/mL | 0.812
S. pneumoniae D39V, first compound 0.0125 µg/mL, partner 0.007 µg/mL | 0.763
S. pneumoniae D39V, first compound 0.015 µg/mL, partner 0.0018 µg/mL | 0.889
S. pneumoniae D39V, first compound 0.015 µg/mL, partner 0.0035 µg/mL | 0.908
S. pneumoniae D39V, first compound 0.015 µg/mL, partner 0.007 µg/mL | 0.803
S. pneumoniae D39V, first compound 0.025 µg/mL, partner 0.0018 µg/mL | 0.573
S. pneumoniae D39V, first compound 0.025 µg/mL, partner 0.0035 µg/mL | 0.549
S. pneumoniae D39V, first compound 0.025 µg/mL, partner 0.007 µg/mL | 0.503
S. pneumoniae D39V, first compound 0.03 µg/mL, partner 0.0018 µg/mL | 0.709
S. pneumoniae D39V, first compound 0.03 µg/mL, partner 0.0035 µg/mL | 0.666
S. pneumoniae D39V, first compound 0.03 µg/mL, partner 0.007 µg/mL | 0.569
S. pneumoniae D39V, first compound 0.05 µg/mL, partner 0.0018 µg/mL | 0.256
S. pneumoniae D39V, first compound 0.05 µg/mL, partner 0.0035 µg/mL | 0.253
S. pneumoniae D39V, first compound 0.05 µg/mL, partner 0.007 µg/mL | 0.184
S. pneumoniae D39V, first compound 0.06 µg/mL, partner 0.0018 µg/mL | 0.374
S. pneumoniae D39V, first compound 0.06 µg/mL, partner 0.0035 µg/mL | 0.354
S. pneumoniae D39V, first compound 0.06 µg/mL, partner 0.007 µg/mL | 0.288

CCN(CC)CCOc1ccc(C(=C(Cl)c2ccccc2)c2ccccc2)cc1 [Clomiphene] + O=C(O[C@@H]1Cc2c(O)cc(O)cc2O[C@@H]1c1cc(O)c(O)c(O)c1)c1cc(O)c(O)c(O)c1 [EGCG]
Conditions | Bliss interaction score
S. aureus DSM 20231 [2] | 0.241

O=C(O[C@@H]1Cc2c(O)cc(O)cc2O[C@@H]1c1cc(O)c(O)c(O)c1)c1cc(O)c(O)c(O)c1 [EGCG] + CN1CCC[C@H]1c1cccnc1 [Nicotine]
Conditions | Bliss interaction score
S. aureus DSM 20231 [2] | -0.157

CC(=O)OC[C@H]1O[C@@H]([S-])[C@H](OC(C)=O)[C@@H](OC(C)=O)[C@@H]1OC(C)=O.CCP(CC)CC.[Au+] [Auranofin] + CC(=O)Oc1cccc2c1C(=O)c1c(OC(C)=O)cc(C(=O)O)cc1C2=O [Diacerein]
Conditions | Bliss interaction score
S. aureus DSM 20231 [2] | -0.466

CCN(CC)CCOc1ccc(C(=C(Cl)c2ccccc2)c2ccccc2)cc1 [Clomiphene] + CN[C@@H]1[C@H](O[C@H]2[C@H](O[C@H]3[C@H](O)[C@@H](O)[C@H](N=C(N)N)[C@@H](O)[C@@H]3N=C(N)N)O[C@@H](C)[C@]2(O)C=O)O[C@@H](CO)[C@H](O)[C@H]1O [Streptomycin]
Conditions | Bliss interaction score
S. aureus DSM 20231 [2] | 0.238

N[C@@H]1CONC1=O [Cycloserine D] + COc1c(N2C[C@@H]3CCCN[C@@H]3C2)c(F)cc2c(=O)c(C(=O)O)cn(C3CC3)c12 [Moxifloxacin]
fitness
Conditions | first compound 0.125 µg/mL | first compound 0.25 µg/mL | first compound 0.375 µg/mL | first compound 0.5 µg/mL | first compound 0.75 µg/mL | first compound 1.5 µg/mL
B. subtilis 168, partner 0.0312 µg/mL | 0.0481 | 0.0489 | – | 0.0432 | – | –
B. subtilis 168, partner 0.0625 µg/mL | 0.033 | 0.034 | – | 0.028 | – | –
B. subtilis 168, partner 0.125 µg/mL | 0.0229 | 0.0218 | – | 0.03 | – | –
B. subtilis 168, partner 2 µg/mL | 0.0539 | 0.0355 | – | 0.0265 | – | –
B. subtilis 168, partner 4 µg/mL | 0.0542 | 0.0318 | – | 0.0298 | – | –
B. subtilis 168, partner 8 µg/mL | 0.04 | 0.0429 | – | 0.0319 | – | –
S. aureus DSM 20231 [1], partner 0.0075 µg/mL | – | – | 0.827 | – | 0.85 | 0.844
S. aureus DSM 20231 [1], partner 0.015 µg/mL | – | – | 0.713 | – | 0.712 | 0.687
S. aureus DSM 20231 [1], partner 0.03 µg/mL | – | – | 0.575 | – | 0.586 | 0.564
S. aureus Newman, partner 0.0075 µg/mL | – | – | 0.761 | – | 0.753 | 0.705
S. aureus Newman, partner 0.015 µg/mL | – | – | 0.599 | – | 0.552 | 0.586
S. aureus Newman, partner 0.03 µg/mL | – | – | 0.119 | – | 0.0631 | 0.06

fitness, S. aureus DSM 20231 [1], one replicate
Conditions | first compound 0.375 µg/mL | first compound 0.75 µg/mL | first compound 1.5 µg/mL
partner 0.06 µg/mL | 0.658 | 0.656 | 0.654
partner 0.12 µg/mL | 0.483 | 0.518 | 0.483
